Reference: ChEMBL document CHEMBL2029311, “Design, synthesis, and evaluation of a novel class of 2,3-disubstituted-tetrahydro-β-carboline derivatives” (2012)

Each molecule was assayed on Mus musculus (assay: Antiinflammatory activity in ICR mouse assessed as inhibition of xylene-induced ear edema at 100 mg/kg, po administered 30 mins before xylene challenge relative to control).
Type: functional

Work on CC(=O)Oc1ccccc1C(=O)O [ASPIRIN] yielded an inhibition in vivo at 100 mg/kg of 89.5%.

The molecules below were run on Mus musculus (assay: Antiinflammatory activity in ICR mouse assessed as inhibition of xylene-induced ear edema at 10 umol/kg, po administered 30 mins before xylene challenge relative to control).
Type: functional

Point of comparison: C[C@H](NC(=O)OC(C)(C)C)C(=O)N1Cc2[nH]c3ccccc3c2C[C@H]1C(=O)N[C@H]1C(O)O[C@H](CO)[C@@H](O)[C@@H]1O (mixture of isomers), inhibition in vivo at 10 µmol/kg 51.9%. Against it:
- CC(=O)OC[C@H]1O[C@@H](OC(C)=O)[C@H](NC(=O)[C@@H]2Cc3c([nH]c4ccccc34)CN2C(=O)OC(C)(C)C)[C@@H](OC(C)=O)[C@@H]1OC(C)=O — higher, 71.2%
- CC(=O)OC[C@H]1O[C@@H](OC(C)=O)[C@H](NC(=O)[C@@H]2Cc3c([nH]c4ccccc34)CN2C(=O)[C@H](C)NC(=O)OC(C)(C)C)[C@@H](OC(C)=O)[C@@H]1OC(C)=O — higher, 82%
- CC(=O)OC[C@H]1O[C@@H](OC(C)=O)[C@H](NC(=O)[C@@H]2Cc3c([nH]c4ccccc34)CN2C(=O)CNC(=O)OC(C)(C)C)[C@@H](OC(C)=O)[C@@H]1OC(C)=O — higher, 58.6%
- C[C@H](N)C(=O)N1Cc2[nH]c3ccccc3c2C[C@H]1C(=O)N[C@H]1C(O)O[C@H](CO)[C@@H](O)[C@@H]1O (mixture of isomers) — higher, 66%
